Test results taken from BigSolDB 2.1.

NC(=O)CS(=O)C(c1ccccc1)c1ccccc1 (stereo not given)
Conditions | solubility (mole fraction)
in 2-butanone, 281 K | 0.00114
in 2-butanone, 304.7 K | 0.00253
in 2-butanone, 307.3 K | 0.00278
in 2-butanone, 314.1 K | 0.00354
in 2-butanone, 317.8 K | 0.00401
in 2-butanone, 319.6 K | 0.00429
in 2-butanone, 329.4 K | 0.0059
in 2-butanone, 332.8 K | 0.00661
in DMF, 280.7 K | 0.0552
in DMF, 283.3 K | 0.0579
in DMF, 290.8 K | 0.0656
in DMF, 293.6 K | 0.0702
in DMF, 300.1 K | 0.0784
in DMF, 311.5 K | 0.0926
in DMF, 318 K | 0.103
in DMF, 320.4 K | 0.108
in acetone, 278.2 K | 0.00141
in acetone, 284 K | 0.00175
in acetone, 290.4 K | 0.0021
in acetone, 294.1 K | 0.00239
in acetone, 303.2 K | 0.00321
in acetone, 307.5 K | 0.00371
in acetone, 311.8 K | 0.00426
in acetone, 320.2 K | 0.0057
in acetonitrile, 286.3 K | 0.000684
in acetonitrile, 293.1 K | 0.000981
in acetonitrile, 297.9 K | 0.00132
in acetonitrile, 301.4 K | 0.00163
in acetonitrile, 304.4 K | 0.00195
in acetonitrile, 311.1 K | 0.00292
in acetonitrile, 322 K | 0.00578
in acetonitrile, 326.4 K | 0.00729
in ethanol, 280.6 K | 0.000668
in ethanol, 285.2 K | 0.000755
in ethanol, 288.4 K | 0.000917
in ethanol, 294.2 K | 0.00111
in ethanol, 304.2 K | 0.00167
in ethanol, 313.7 K | 0.00253
in ethanol, 322.8 K | 0.00377
in ethanol, 330 K | 0.00527
in ethyl acetate, 273.2 K | 0.00046
in ethyl acetate, 288 K | 0.000602
in ethyl acetate, 291.9 K | 0.000709
in ethyl acetate, 298 K | 0.000844
in ethyl acetate, 303.5 K | 0.001
in ethyl acetate, 312.3 K | 0.00141
in ethyl acetate, 322.2 K | 0.002
in ethyl acetate, 328.3 K | 0.00255
in isopropanol, 283.2 K | 0.000603
in isopropanol, 287.9 K | 0.00086
in isopropanol, 295.8 K | 0.00106
in isopropanol, 299.8 K | 0.00129
in isopropanol, 308.5 K | 0.00193
in isopropanol, 317.6 K | 0.00291
in isopropanol, 323.5 K | 0.00388
in isopropanol, 331.5 K | 0.00607
in methanol, 277.9 K | 0.00189
in methanol, 289 K | 0.0028
in methanol, 297.5 K | 0.00394
in methanol, 301.8 K | 0.00459
in methanol, 308.4 K | 0.0059
in methanol, 314 K | 0.00744
in methanol, 318.2 K | 0.00891
in methanol, 319.7 K | 0.00945
in n-propanol, 284.5 K | 0.001
in n-propanol, 291.9 K | 0.00131
in n-propanol, 299 K | 0.00184
in n-propanol, 300.4 K | 0.00195
in n-propanol, 314.3 K | 0.00362
in n-propanol, 316.9 K | 0.00411
in n-propanol, 319.9 K | 0.00475
in n-propanol, 324.8 K | 0.00585
in water, 290.7 K | 5.4e-05
in water, 297.5 K | 8.1e-05
in water, 300.5 K | 8.8e-05
in water, 301.7 K | 0.000103
in water, 309.5 K | 0.00013
in water, 312.9 K | 0.000177
in water, 320.8 K | 0.000242
in water, 323.4 K | 0.000281
